Reference: US9937250B2, “Immunogenic tumor associated stromal cell antigen peptides and methods of their use” (University of Pittsburgh—Of the Commonwealth System of …, priority 2011, dated 2018)

System: B16 melanoma
Experiment: Therapeutic vaccination of established B16 melanoma (tumor growth, survival)
Type: in vivo, HHD or C57BL/6 (B6) mice
Details: for Survival of B16-bearing HHD mice: followed through 60 days post-tumor inoculation (FIG. 11C); for B16 tumor growth in HHD mice: therapeutic vaccines, HHD mice (FIG. 11B)
Protocol: FIGS. 11A-11C show a series of graphs illustrating that DC.IL12 vaccines containing TASA-derived peptides are therapeutic against MC38 colon carcinomas and B16 melanomas in HHD mice. In FIG. 11A, HHD mice bearing established day seven subcutaneous MC38 tumors (right flank) were left untreated, or they were vaccinated in the left flank with control DC.IL12 or DC.IL12 pulsed with an equimolar pool (10 μM each) of the following TASA-derived peptides: DLK1326-334, EPhA2883-891, HBB31-39, NRP1869-877, PDGFRβ890-898, RGS55-13 and TEM1691-700. Identical booster vaccines were provided on day 14 post-tumor inoculation. As indicated, two vaccine cohorts were treated with depleting anti-CD4 or anti-CD8 monoclonal antibodies to evaluate the impact of these T cell subsets on therapy outcome. Tumor growth was monitored every 3-4 days through d28. In FIG. 11B, Female HHD or C57BL/6 (B6) mice were inoculated subcutaneously in the right flank with 1×10^5B16 (HLA-A2^neg) tumor cells. […] The mice then received vaccines consisting of isologous control or peptide-pulsed DC.IL12 cells subcutaneously in the left flank on days 10 and 17 (post-tumor inoculation). In cases where more than one peptide was identified for a given target antigen, an equimolar pool of the indicated peptides (each 10 μM) was pulsed onto DC.IL12 and used for vaccination. Tumor size (mean+/−SD) was monitored every 3-4 days through day 34. In FIG. 11A and FIG. 11B, mean tumor area+/−SD is reported for 5 animals/cohort. Data are the representative of those obtained in two independent experiments in each case. *p<0.05 versus DC only on the indicated days. In FIG. 11C, HHD mice bearing subcutaneous B16 melanomas were treated as described in FIG. 11B and followed through day 60 post-tumor inoculation. Data are reported in a Kaplan-Meier plot depicting overall percentage of surviving animals over time. *p<0.02 versus DC only; **p<0.002 versus DC only (with refined p-values for differences between treatment cohorts reported in Table 6). Data are cumulative for three independent experiments performed.
Vaccine Experiments. For prophylactic experiments, HHD mice were immunized subcutaneously on the right flank with 100 μl PBS or PBS containing 10^6 syngenic DC.IL12 cells that had been untreated or pre-pulsed for 4 h at 37° C. with 10 μM synthetic peptide(s). […] For analysis of tumor cellular composition in repeat experiments, MC38 tumors were isolated by surgical resection 10 days after tumor inoculation and prepared for fluorescence imaging, as described below. […] In some assays, as indicated, in vivo antibody depletions (on days 6, 13 and 20 post-tumor inoculation to assess early involvement or on days 60 and 67 or 180 and 187 to assess late involvement) of protective CD4^+ T cells or CD8^+ T cells were performed and monitored as previously described (Zhao et al., Mol Ther., 19:805-814, 2011). In all cases, tumor size (area) was monitored every 3-4 days and is reported as mean+/−SD in mm^2.
To analyze the status and specificity of Tc1 cells, HHD mice rendered free of B16 melanoma after therapeutic vaccination with DLK or RGS5 peptide-based vaccines were sacrificed 60 days after tumor inoculation. Fresh MACS-isolated spleen CD8^+ T cells were then analyzed for reactivity against HLA-A2^+PDGFRβ^+CD31^neg pericytes, HLA-A2^+PDGFRβ^negCD31^+ VEC or HLA-A2^neg tumor cells flow-sorted from day 19 B16 tumors growing progressively in untreated HHD mice. […]

Row | Substance | Survival of B16-bearing HHD mice | B16 tumor growth in HHD mice
1 | RGS5: RGS5-derived peptide 5-13 pulsed onto DC or DC.IL12 (LAALPHSCL; listed as Homo sapiens) | significant survival benefits | effective in suppressing tumor growth
2 | EphA2: EphA2-derived peptide 883-891 pulsed onto DC or DC.IL12 (TLADFDPRV; listed as Homo sapiens) | significant survival benefits | effective in suppressing tumor growth
3 | TEM1: TEM1-derived peptide 691-700 pulsed onto DC or DC.IL12 (LLVPTCVFLV; listed as Homo sapiens) | significant survival benefits | 
